Where two headings read alike, the source gives them in different places.
Experiments:
[1] = system: thymidylate synthesis; conditions: Heidelberger 1983; cited from earlier work
[2] = system: Plasmodium falciparum, Indochina clone W2; test: microbe, parasite or virus in culture; conditions: for IC50: Plasmodium falciparum; for Molar Index: Indochina clone, equimolar activity of 5-fluoroorotate relative to the conventional drug
Procedure: In the antimalarial experiment with parasites, incorporation of radioactivity from [G-^3 H]-hypoxanthine into nucleic acids served as a measure of parasite proliferation. […] Each data point represents an average of two determinations. In the study of toxicity to human cells, proliferation of cells was determined directly by measuring the number of viable cells per well. […] Each data point represents an average of two determinations. 5-fluoro-orotate (.circle-solid.), 5-fluorouracil (.box-solid.), 5-fluorouridine (.tangle-solidup.), and 5-fluoro-2'-deoxyuridine (.diamond-solid.).
(§1) Half shaded symbols represent overlapping data points.
(§2) 3. Effects of pyrimidine analogues alone or in combination with normal pyrimidine bases or nucleosides or with amino acid derivatives can be tested in malaria parasite-infected erythrocytes. Varying concentrations of pyrimidine analogues in culture medium are added to individual wells of microtitre plates [Desjardins, R. E. et al., Antimicrob. […] Parasitemic erythrocytes in culture medium are added to each well. […] As an alternative to adding a radioactive precursor of nucleic acid biosynthesis, the end point for determining the effects of added drugs can be the incorporation of a radioactive amino acid, e.g., [U-^14 C]-isoleucine, into parasite protein.
Fluoropyrimidines, dispersed in 25 μl of culture medium, were added to individual wells of a 96-well microtitre plate. […] Finally, the incorporation of 0.5 μCi of [G-^3 H]hypoxanthine (1 Ci/mmol) into nucleic acids in each well was determined; this served as a measure of parasite proliferation.

[3] = system: HT-1080 human fibrosarcoma cells; test: Toxicity to cultured HT-1080 cells, number of viable cells; assay type: cell-based; conditions: Homo sapiens, HT-1080, 48 h
Procedure: Each data point represents an average of two determinations. […] Each data point represents an average of two determinations.
as §1
Toxicity of pyrimidine analogues to cultured human cells is determined as follows. Mammalian cells are seeded into culture plate wells, and growth medium is added. The following day, fresh culture medium containing the appropriate pyrimidine analogues is added to the wells, and the plates incubated for a period of time and at a temperature appropriate to the cell line and the experimental requirements. Thereafter, the number of cells in each well is determined. […] Cells that grow in suspension (e.g., HL-60 and L-1210 cells) are transferred to centrifuge tubes, pelleted at low speed, washed, and the viability determined as above.
HT-1080 cells were seeded into 6-well culture plates at a density of 50,000 cells per 9.6 cm^2 well. Each well contained 2.5 ml of growth medium. […] After 1 minute, the detached cells were suspended in 1.0 ml of EMEM and collected by centrifugation at 300×g for 3 minutes. […] The concentrations of viable cells were determined in a hemocytometer.

[4] = system: Plasmodium falciparum, Sierra Leone clone D6; test: Inhibition of P. falciparum proliferation, [G-3H]-hypoxanthine incorporation, Sierra Leone clone D6 (chloroquine-sensitive); assay type: cell-based; conditions: Sierra Leone clone; for IC50: Plasmodium falciparum, D6, Table 1, mean ± S.D. of five independent drug response curves; for Molar Index: equimolar activity of 5-fluoroorotate relative to the conventional drug
Procedure: as §2
Fluoropyrimidines, dispersed in 25 μl of culture medium, were added to individual wells of a 96-well microtitre plate. […] Finally, the incorporation of 0.5 μCi of [G-^3 H]hypoxanthine (1 Ci/mmol) into nucleic acids in each well was determined; this served as a measure of parasite proliferation. […] In a second method, the increase in parasitemia was determined directly by smearing infected erythrocytes on microscope slides, staining with Giemsa stain, and determining the ratio of infected to non-infected erythrocytes. In a third method, parasite-infected erythrocytes were incubated with [U-^14 C]-isoleucine (0.5 μCi; 0.33 Ci/mmol), and the amount of radioactivity incorporated into precipitable proteins determined.

[5] = cited from earlier work
[6] = system: P. yoelii; test: Anti-malarial activity in P. yoelii-infected mice; assay type: in vivo, P. yoelii in Swiss white mice; conditions: experiment 2 control, 800 mg/kg uridine alone
Procedure: FIG. 4 illustrates the effect of 5-fluoro-orotate treatment on blood parasitemia. Mice infected with P. yoelii on day 0 in experiments 1 and 2 were treated with (A) 0.2 mg/kg 5-fluoro-orotate, (B) 1 mg/kg, or (C) 5 mg/kg every 4 hours for three days. Control mice (.largecircle., .circle-solid., respectively), received no drug. Open symbols represent treatment without uridine (experiment 1: .smallcircle., .quadrature., .diamond., Δ), and filled symbols represent animals also treated with uridine (experiment 2: .circle-solid., .box-solid., .diamond-solid., .tangle-solidup.). Animals were treated with 5-fluoro-orotate on days 3 to 6. Animals were also treated with uridine in experiment 2 on days 3 to 9.
FIG. 5 illustrates the survival rate of mice infected with P. yoelii and treated with 5-fluoro-orotate, alone or in combination with uridine. Mice were treated with (A) 0.2 mg/kg 5-fluoro-orotate, (B) 1 mg/kg, or (C) 5 mg/kg. Control mice received no 5-fluoro-orotate (.largecircle., .circle-solid., respectively). Open symbols represent treatment without uridine (experiment 1: .largecircle., .quadrature., .diamond., Δ), and closed symbols represent animals also receiving uridine (experiment 2: .circle-solid., .box-solid., .diamond-solid., .tangle-solidup.).
A second in vivo test system can be used to determine if repeated administration of the pyrimidine analogue would have safe anti-malarial activity. In this test system, groups of animals are infected with malaria parasites. At a time when blood parasitemia is reached, the animals are injected with saline alone (control) or with various concentrations of one or more pyrimidine analogues alone or together with one or more rescuing pyrimidine bases or nucleosides at a single concentration, at intervals, over a period of several days. In order to determine the prophylactic effectiveness of the rescuing pyrimidine base or nucleoside, the animals are pretreated with such a base or nucleoside prior to the administration of the pyrimidine analogue. Anti-malarial activity of the treatments is estimated by determining blood parasitemia on the animals at appropriate times. The safety of the treatments is estimated by monitoring animals for weight loss and diarrhea, as these are early symptoms of pyrimidine analogue toxicity [Houghton, J. A., et al., Cancer Res., 39:2406-13 (1979)].
Swiss white mice (25-30 g) were divided into groups of five. On day 0, each mouse was infected by intraperitoneal injection of 10^5 erythrocytic forms of P. yoelii. Starting on day 3, when the blood parasitemia had reached between 5 and 12%, the mice were injected intraperitoneally every 4 hours for three consecutive days with 200 μl of various formulations. […]

[7] = text value (FIG. 1B), read-out: IC50

IC50 ([2]; W2, 48 h) [nM] | IC50 ([2]; W2) [nM] | SMILES | Molar Index [2] | Molar Index [4] | other results
 |  | O=c1[nH]c(=O)n([C@H]2C[C@H](O)[C@@H](COP(=O)(O)O)O2)cc1F [5-fluoro-2'-deoxy-uridylate] |  |  | inhibition of thymidylate synthesis [1]: potent enzyme-activated inhibitor of thymidylate synthesis
100000 |  | O=c1[nH]c(=O)n([C@H]2C[C@H](O)[C@@H](CO)O2)cc1F [5-fluoro-2'-deoxyuridine, reference compound] |  |  | IC50 [3, 7]: 10 nM
32000 |  | O=c1[nH]c(=O)n([C@@H]2O[C@H](CO)[C@@H](O)[C@H]2O)cc1F [5-fluoro-uridine, reference compound] |  |  | IC50 [3, 7]: 30 nM
 | 111 ± 29 | CCc1nc(N)nc(N)c1-c1ccc(Cl)cc1 [Pyrimethamine] | 19 | 0.04 | IC50 ([4]; read-out: IC50): 0.24 ± 0.16 nM
 | 25600 ± 7080 | COc1ncnc(NS(=O)(=O)c2ccc(N)cc2)c1OC [Sulfadoxine] | 4344 | 13.5 | IC50 ([4]; read-out: IC50): 76.2 ± 13.2 nM
 |  | O=c1ccn([C@@H]2O[C@H](CO)[C@@H](O)[C@H]2O)c(=O)[nH]1 [uridine, reference compound] |  |  | mortality, uridine alone [6]: all succumbed to P. yoelii

SMILES | IC50 ([2]; W2, 48 h) [nM] | IC50 ([2]; W2) [nM] | Molar Index [2] | Molar Index [4] | other results
O=c1[nH]cc(F)c(=O)[nH]1 [5-fluoro-uracil, reference compound] | 12000 |  |  |  | IC50 ([3]; read-out: IC50 (50% inhibition)): 2000 nM
CCN(CC)CCCC(C)Nc1ccnc2cc(Cl)ccc12 (stereo not shown) [Chloroquine] |  | 127 ± 23 | 21 | 1.6 | IC50 [4]: 9 ± 1.7 nM; tolerability, oral ([5]; oral): typically is well-tolerated; safety, parenteral ([5]; parenteral, children): may cause cardiac arrhythmia and sudden death in children
